One may read the IC50 as the midpoint of a concentration-inhibition curve. Read a low IC50 as greater potency.

The record followed here is patent US11807628B2, “Benzodiazepine derivatives and uses thereof” (priority 2018, dated 2023).

Non-standard residues stand in square brackets, D forms with d. Residues, ends and D or L forms follow the SMILES beside them. Dolaproine = CO[C@@H]([C@@H]1CCCN1)[C@@H](C)C(=O)O; Dil = CC[C@H](C)[C@H](NC)[C@@H](CC(=O)O)OC; NMeV = CN[C@H](C(=O)O)C(C)C

One test concerns A-498. In words: In vitro analysis of benzodiazepine dimer derivatives, MTT cell viability. It is filed as cell-based. The conditions noted are these: MTT assay, 6 days incubation. As for the experimental part: (§1) Example 85: In Vitro Analysis of Benzodiazepine Dimer Derivatives A-498, HCT-116, JIMT-1, MIA-PaCa-2 and HEK-293E were seeded into 24-well plates at 10×10^3 cells/1 mL medium/well. Calu-6, PC-3 and SK-OV-3 were seeded into 24-well plates at 15×10^3 cells/1 mL medium/well. NCI-N87 was seeded into 24-well plates at 25×10^3 cells/1 mL medium/well. The plates were incubated for 24 hours at 37° C. in a humidified 5% CO2-in-air atmosphere. Benzodiazepine dimer derivatives were dissolved initially in DMSO at a concentration of 10 mM. Serial dilutions were made in DMSO. The series of compound dilutions in DMSO were added to triplicate wells of 24-well plates at 5 μL per well. Three wells on each individual plate received 5 μL of DMSO without compound as controls. The final concentration of DMSO per well was 0.5%. The plates were incubated for 6 days at 37° C. in a humidified 5% CO2-in-air atmosphere. Cell viability was determined by the MTT assay and IC50 was generated using a sigmoidal dose-response nonlinear regression curve fit (GraphPad Software Inc.).

Another test has as its system Calu-6. Described as above. It is filed as cell-based. The conditions noted are these: MTT assay, 6 days incubation. The protocol:
as §1
Background: Tetrazolium dyes change colour on reduction, which living cells bring about.

For the next test, the system named is HCT-116. The test is described as above. The class given is cell-based. The conditions noted are these: MTT assay, 6 days incubation. The protocol: as §1
The test system of a further test is HEK-293E. Described as above. It is filed as cell-based. Particulars: MTT assay, 6 days incubation. The protocol:
as §1

Test [1] relates to JIMT-1. The test is described as above. It is filed as cell-based. The conditions noted are these: MTT assay, 6 days incubation. As for the experimental part: as §1
A further test relates to MIA-PaCa2. The description is as above. The class given is cell-based. Particulars: MTT assay, 6 days incubation. As for the experimental part: as §1
The subject of test [2] is NCI-N87. Described as above. The class given is cell-based. The conditions noted are these: Homo sapiens, NCI-N87, 144 h; MTT assay, 6 days incubation. As for the experimental part:
as §1

In a further test the test system is PC-3. The description is as above. It is filed as cell-based. The conditions noted are these: MTT assay, 6 days incubation. As for the experimental part:
as §1

In test [3] the test system is SK-OV3. The test is described as above. The class given is cell-based. The conditions noted are these: MTT assay, 6 days incubation. As for the experimental part:
as §1

Test [4] deals with JIMT-1. In words: Cell cytotoxicity of antibody-drug conjugate. The class given is cell-based. The conditions noted are these: living cells quantified 96 hours later. The protocol:
(§2) NCI-N87, JNMT-2, SK-BR3, and SK-V3 cancer cells were seeded in 96-well plates at a density of 2,000 to 8,000 cells per well in 100 μL of medium, and cultured for 24 hours. The four compounds obtained in Example 46 were treated by serial dilutions of 1:4 from 600 nM to 0.009 nM, and the antibody drug conjugate T-DM1 was treated by serial dilutions of 1:4 from 200 nM to 0.003 nM. Experiments were performed in a similar manner to Test Example 1 to quantify living cells 96 hours later, and results are shown in Table 2 below. Further, results of in vitro analysis of compound T-2-AB, T-3-AB, T-7-AB T-8-AB, T-9-AB, T-11-AB, T-12-AB, T-13-AB, T-14-AB, T-15-AB, T-16-AB, T-17-AB, T-Int-1-AB, T-Int-2-AB, T-Int-14-AB and mT-Int-8-AB were shown in FIG. 10, FIG. 11, FIG. 12, and Table 3.

Test [5] relates to NCI-N87. Description: Cell cytotoxicity of antibody-drug conjugate. It is filed as cell-based. Particulars: living cells quantified 96 hours later. The protocol: as §2
The test system of a further test is SK-BR3. Description: Cell cytotoxicity of antibody-drug conjugate. It is filed as cell-based. Particulars: living cells quantified 96 hours later. The protocol: as §2
Test [6] concerns SK-OV3. Description: Cell cytotoxicity of antibody-drug conjugate. The conditions noted are these: living cells quantified 96 hours later. The class given is cell-based. As for the experimental part:
as §2

The next test concerns NCI-N87 cells. In words: In vivo efficacy, tumor xenograft studies in mice. The conditions noted are these: Male BALB/c nu/nu mice, tumors approximately 95 mm^3 at start, single i.v. injection day 0 (T-2-AB 0.5 or 2 mg/kg, T-DM1 2 mg/kg), 80 days observation. As for the experimental part: In vivo efficacy of antibody-drug conjugates of the invention was measured by tumor xenograft studies in mice. Male BALB/c nu/nu were injected subcutaneously in the right flank with suspensions of 5×10^6 of NCI-N87 cells respectively in PBS. Mice were randomized into study groups when tumors reached approximately 95 mm^3. T-DM1 (2 mg/kg) and T-2-AB conjugates (0.5 mg/kg or 2 mg/kg) were given i.v. (single injection on treatment day 0). All treatment groups consisted of 6 to 10 animals per group, and tumor size was monitored twice weekly using caliper measurement. The tumor mass was calculated as volume=(width×width×length)/2.
T-7-AB was progressed in the same method except initial tumor size was 150 mm^3.

Where [7] appears, read: Homo sapiens, MIA PaCa-2, 144 h.

In the case of `C=C1C[C@H]2C=Nc3cc(OCc4cc(O)cc(COc5cc6c(cc5OC)C(=O)N5CC(=C)C[C@H]5C=N6)c4)c(OC)cc3C(=O)N2C1` [Compound D-1, (Phenol)-PBD-Dimer], the IC50 in the test on A-498 (Homo sapiens, A498, 144 h) is 414 pM; in the test on Calu-6 (Homo sapiens, Calu-6, 144 h), 89 pM; with HCT-116 (Homo sapiens, HCT-116, 144 h), 109 pM; in the test with HEK-293E (HEK293E, 144 h), 216 pM; with JIMT-1 [1] (Homo sapiens, JIMT-1, 144 h) it was 102 pM; in the test on MIA-PaCa2 (setting [7]), 105 pM. For the same molecule, the 50% inhibitory concentration (IC50) in the test on NCI-N87 [2] stood at 191 pM; in the test on PC-3 (Homo sapiens, PC-3, 144 h) it was 126 pM; with SK-OV3 [3] (Homo sapiens, SK-OV-3, 144 h), 175 pM.
On to `C=C1C[C@H]2C=Nc3cc(OCc4cncc(COc5cc6c(cc5OC)C(=O)N5CC(=C)C[C@H]5C=N6)c4)c(OC)cc3C(=O)N2C1` [Compound D-2, (Pyridine)-PBD-Dimer], for which the IC50 in the test on A-498 (Homo sapiens, A498, 144 h) was found to be 64 pM; with Calu-6 (Homo sapiens, Calu-6, 144 h), 29 pM; in the test with HCT-116 (Homo sapiens, HCT-116, 144 h), 36 pM; with HEK-293E (HEK293E, 144 h), 79 pM; in the test with JIMT-1 [1] (Homo sapiens, JIMT-1, 144 h) it was 34 pM; in the test with MIA-PaCa2 (setting [7]) it was 44 pM. The IC50 in the test with NCI-N87 [2] is 104 pM; with PC-3 (Homo sapiens, PC-3, 144 h), 49 pM; with SK-OV3 [3] (Homo sapiens, SK-OV-3, 144 h) it was 74 pM.
Consider `COc1cc2c(cc1OCc1cc(O)cc(COc3cc4c(cc3OC)C(=O)N3Cc5ccccc5C[C@H]3C=N4)c1)N=C[C@@H]1Cc3ccccc3CN1C2=O` [Compound D-3, (Phenol)-TBD-Dimer], for which the IC50 in the test on A-498 (Homo sapiens, A498, 144 h) was 139 pM; in the test on Calu-6 (Homo sapiens, Calu-6, 144 h), 6.2 pM; in the test on HCT-116 (Homo sapiens, HCT-116, 144 h) it was 13.7 ± 8.6 pM; in the test with HEK-293E (HEK293E, 144 h) it was 11.4 ± 2.6 pM; with JIMT-1 [1] (Homo sapiens, JIMT-1, 144 h), 31 ± 15 pM; with MIA-PaCa2 (setting [7]), 10.6 ± 4.6 pM. Further, the IC50 in the test with NCI-N87 [2] came to 32.2 ± 21.3 pM; in the test on PC-3 (Homo sapiens, PC-3, 144 h), 32.6 ± 10.3 pM; in the test on SK-OV3 [3] (Homo sapiens, SK-OV-3, 144 h), 59.6 ± 18.2 pM.
As to `COc1cc2c(cc1OCc1cncc(COc3cc4c(cc3OC)C(=O)N3Cc5ccccc5C[C@H]3C=N4)c1)N=C[C@@H]1Cc3ccccc3CN1C2=O` [Compound D-4, (Pyridine)-TBD-Dimer], the 50% inhibitory concentration (IC50) was found to be 1.7 ± 0.6 pM in the test on JIMT-1 [1] (Homo sapiens, JIMT-1, 144 h) and 3.8 ± 2.4 pM with NCI-N87 [2].
Regarding `COc1cc2c(cc1OCc1cc(COc3cc4c(cc3OC)C(=O)N3Cc5ccccc5C[C@H]3C=N4)cc(CN(C)C)c1)N=C[C@@H]1Cc3ccccc3CN1C2=O` [Compound D-5, (N,N-dimethylbenzyl)-TBD-Dimer], the IC50 came to 2.9 pM in the test on A-498 (Homo sapiens, A498, 144 h); 1.4 pM in the test on Calu-6 (Homo sapiens, Calu-6, 144 h); 1.4 ± 0.6 pM with HCT-116 (Homo sapiens, HCT-116, 144 h); 2.2 ± 1.1 pM with HEK-293E (HEK293E, 144 h); 1.7 ± 0.5 pM with JIMT-1 [1] (Homo sapiens, JIMT-1, 144 h); 1.9 ± 1.6 pM in the test with MIA-PaCa2 (setting [7]). In addition, the IC50 with PC-3 (Homo sapiens, PC-3, 144 h) was 4.4 ± 2.1 pM; in the test on SK-OV3 [3] (Homo sapiens, SK-OV-3, 144 h), 10.9 ± 2.7 pM.
Consider `COc1cc2c(cc1OCCN(CCOc1cc3c(cc1OC)C(=O)N1Cc4ccccc4C[C@H]1C=N3)c1ccncc1)N=C[C@@H]1Cc3ccccc3CN1C2=O` [Compound D-6, (N-Pyridine)-TBD-Dimer], for which the IC50 was 2980 pM in the test on JIMT-1 [1] (Homo sapiens, JIMT-1, 144 h) and 4110 pM in the test with NCI-N87 [2].
In turn, `COc1cc2c(cc1OCc1cc(O)cc(COc3cc4c(cc3OC)C(=O)N3c5ccccc5C[C@H]3C=N4)c1)N=C[C@@H]1Cc3ccccc3N1C2=O` [Compound D-7, (Phenol)-IBD-Dimer] yielded an IC50 with NCI-N87 [2] of 118 ± 9 pM.
`COc1cc2c(cc1OCc1cc(COc3cc4c(cc3OC)C(=O)N3c5ccccc5C[C@H]3C=N4)cc(CN(C)C)c1)N=C[C@@H]1Cc3ccccc3N1C2=O` [Compound D-8, (N,N-dimethylbenzyl)-IBD-Dimer] showed a half-inhibitory concentration (IC50) with NCI-N87 [2] of 62 ± 2 pM.
In the case of `COc1cc2c(cc1OCCN(C)CCOc1cc3c(cc1OC)C(=O)N1Cc4ccccc4C[C@H]1C=N3)N=C[C@@H]1Cc3ccccc3CN1C2=O` [Compound D-9], the concentration for half-maximal inhibition (IC50) with NCI-N87 [2] stood at 184 ± 36 pM.
Turning to `C=C1C[C@H]2C=Nc3cc(OCc4cc(COc5cc6c(cc5OC)C(=O)N5CC(=C)C[C@H]5C=N6)cc(CN(C)C)c4)c(OC)cc3C(=O)N2C1` [Compound D-10], the 50% inhibitory concentration (IC50) in the test on NCI-N87 [2] is 663 ± 116 pM.
In turn, `COc1cc2c(cc1OCc1cc(O)cc(COc3cc4c(cc3OC)C(=O)N3C=C(c5ccccc5)C[C@H]3C=N4)c1)N=C[C@@H]1CC(c3ccccc3)=CN1C2=O` [Compound D-11] came in with an IC50 in the test with NCI-N87 [2] of 173 ± 34 pM.
The molecule `COc1cc2c(cc1OCc1cc(COc3cc4c(cc3OC)C(=O)N3Cc5cc(O)ccc5C[C@H]3C=N4)cc(CN(C)C)c1)N=C[C@@H]1Cc3ccccc3CN1C2=O` [Compound D-12] yielded an IC50 in the test with NCI-N87 [2] of 2030 pM.
The molecule `COc1cc2c(cc1OCCCCCOc1cc3c(cc1OC)C(=O)N1Cc4cc(O)ccc4C[C@H]1C=N3)C=N[C@@H]1Cc3ccccc3CN1C2=O` [Compound D-13] had an IC50 with NCI-N87 [2] of 2030 ± 1220 pM.
`CC[C@H](C)[C@@H]([C@@H](CC(=O)N1CCC[C@H]1[C@H](OC)[C@@H](C)C(=O)N[C@@H](Cc1ccccc1)C(=O)OC)OC)N(C)C(=O)[C@@H](NC(=O)[C@@H](NC)C(C)C)C(C)C` [MMAF-OMe, reference compound] (H-[NMeV]V[Dil][Dolaproine]F-OMe): the concentration for half-maximal inhibition (IC50) worked out at 233 pM in the test with A-498; 162 pM with Calu-6; 392 pM in the test with HCT-116; 970 pM with HEK-293E; 161 pM with JIMT-1 [1]; 852 pM in the test with MIA-PaCa2. The IC50 with PC-3 is 212 pM; in the test with SK-OV3 [3], 244 pM.
`COc1cc2c(cc1OCc1cccc(COc3cc4c(cc3OC)C(=O)N3Cc5ccccc5C[C@H]3C=N4)c1)N=C[C@@H]1Cc3ccccc3CN1C2=O` [Ref-1, reference compound]: the IC50 was 5.4 ± 1.6 pM in the test on JIMT-1 [1] (Homo sapiens, JIMT-1, 144 h) and 3.5 ± 2.8 pM in the test with NCI-N87 [2].
Consider T-DM1, for which the half-inhibitory concentration (IC50) in the test with JIMT-1 [4] was 3.15 ± 1.76 nM; in the test with NCI-N87 [5], 0.234 ± 0.096 nM; in the test on SK-BR3 it was 0.037 ± 0.012 nM; in the test with SK-OV3 [6] it was 0.109 ± 0.004 nM. Besides, the “Tumor size in NCI-N87 xenograft” value in the test with NCI-N87 cells is “less active than the conjugates of the invention”.
